The subject of assay [1] is Rattus norvegicus. Put plainly: Compound was tested for mean blood pressure effect in conscious spontaneously hypertensive rats after peroral administration of 30 mg/kg. Format: functional. To be noted: route oral.
Assay [2] concerns Rattus norvegicus. Briefly: Compound was tested for urine flow in conscious spontaneously hypertensive rats after peroral administration of 30 mg/kg. To be noted: route oral. Format: functional.
The subject of assay [3] is Canis familiaris. Briefly: Ability to induce dilation of dog renal artery when administered intravenously; Values is potency versus DPDA. The format is functional, Canis lupus familiaris.
Assay [4] relates to Canis familiaris. Put plainly: Blockade of dog renal artery dilation by the […] was measured after intravenous administration of 0.05-0.1 mg/kg. The format is functional, Canis lupus familiaris.
Assay [5] has as its system Canis familiaris. Put plainly: Blockade of dog femoral artery dilation by the D-2 antagonist domperidone was measured after intravenous administration of […]. Format: functional, Canis lupus familiaris.
Assay [6] has as its target Beta-1 adrenergic receptor (Homo sapiens) (UniProt P08588). Briefly: Compound was tested for its binding affinity against Beta-1 adrenergic receptor; IA is Inactive.
The subject of assay [7] is Canis familiaris. Briefly: Ability to induce dilation of dog femoral artery when administered intravenously; Values is potency versus DPDA. Format: functional, Canis lupus familiaris.
In assay [8] the target is T1, Adrenergic receptor alpha-1 (Homo sapiens, UniProt P35348+P25100+P35368).
T1 sequence (P35348 whole entry): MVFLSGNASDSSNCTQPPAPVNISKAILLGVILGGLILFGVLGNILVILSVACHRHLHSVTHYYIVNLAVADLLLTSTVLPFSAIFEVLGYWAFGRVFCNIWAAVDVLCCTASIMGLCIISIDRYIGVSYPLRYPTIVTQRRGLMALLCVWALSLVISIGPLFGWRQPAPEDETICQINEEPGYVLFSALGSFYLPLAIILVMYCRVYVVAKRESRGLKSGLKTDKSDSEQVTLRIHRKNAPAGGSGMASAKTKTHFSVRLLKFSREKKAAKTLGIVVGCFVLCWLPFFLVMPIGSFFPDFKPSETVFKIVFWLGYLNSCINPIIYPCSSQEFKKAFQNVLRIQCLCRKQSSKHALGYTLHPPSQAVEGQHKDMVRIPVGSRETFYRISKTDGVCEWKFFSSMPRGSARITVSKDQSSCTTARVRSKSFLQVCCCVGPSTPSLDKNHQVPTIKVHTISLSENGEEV
T1 sequence (P25100 whole entry): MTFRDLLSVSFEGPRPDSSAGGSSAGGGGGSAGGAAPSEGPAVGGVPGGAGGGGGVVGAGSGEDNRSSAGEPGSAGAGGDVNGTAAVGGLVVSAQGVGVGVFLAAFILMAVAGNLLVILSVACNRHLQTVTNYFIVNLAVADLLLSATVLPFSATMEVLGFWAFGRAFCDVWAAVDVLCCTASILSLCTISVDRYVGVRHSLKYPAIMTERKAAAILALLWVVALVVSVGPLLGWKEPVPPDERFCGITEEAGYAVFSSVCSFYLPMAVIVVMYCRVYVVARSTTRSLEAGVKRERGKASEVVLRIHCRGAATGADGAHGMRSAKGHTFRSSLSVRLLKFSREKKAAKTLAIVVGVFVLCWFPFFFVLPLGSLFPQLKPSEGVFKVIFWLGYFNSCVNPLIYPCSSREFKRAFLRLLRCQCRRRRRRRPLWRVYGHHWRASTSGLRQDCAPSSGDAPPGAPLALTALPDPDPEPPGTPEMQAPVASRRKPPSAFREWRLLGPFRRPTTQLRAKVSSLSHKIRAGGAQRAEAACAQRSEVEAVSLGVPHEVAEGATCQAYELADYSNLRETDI
T1 sequence (P35368 whole entry): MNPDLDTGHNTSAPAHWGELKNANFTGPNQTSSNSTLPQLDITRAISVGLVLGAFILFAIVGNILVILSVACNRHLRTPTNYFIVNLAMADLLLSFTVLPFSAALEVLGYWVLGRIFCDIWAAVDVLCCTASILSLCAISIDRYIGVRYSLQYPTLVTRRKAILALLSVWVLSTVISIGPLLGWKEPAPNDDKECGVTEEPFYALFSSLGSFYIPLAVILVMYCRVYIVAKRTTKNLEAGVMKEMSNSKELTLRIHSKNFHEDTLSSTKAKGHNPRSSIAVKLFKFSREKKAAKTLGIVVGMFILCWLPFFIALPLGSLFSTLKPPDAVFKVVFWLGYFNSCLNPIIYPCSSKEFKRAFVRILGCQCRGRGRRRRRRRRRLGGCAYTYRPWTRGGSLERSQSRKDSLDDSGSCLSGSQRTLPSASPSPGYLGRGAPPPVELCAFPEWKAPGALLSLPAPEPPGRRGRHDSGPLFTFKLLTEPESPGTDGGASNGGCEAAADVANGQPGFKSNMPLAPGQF
Put plainly: Compound was tested for its binding affinity against Alpha-1 adrenergic receptor. The format is protein assay.

In assay [9] the target is Beta-2 adrenergic receptor (Homo sapiens) (UniProt P07550). Briefly: Compound was tested for its binding affinity against beta-2 adrenoceptor; IA is Inactive.
Assay [10] concerns the target D(1A) dopamine receptor (Rattus norvegicus, UniProt P18901). Put plainly: Binding affinity against Dopamine receptor D1 in rat striatal membranes using [3H]SCH-23390. The format is cell membranes, Striatum, Membrane.
The target in assay [11] is D(2) dopamine receptor (Rattus norvegicus, UniProt P61169). Put plainly: Binding affinity against Dopamine receptor D2 in rat striatal membranes using [3H]spiperone. Format: cell membranes, Striatum, Membrane.

Active and inactive are the calls of the source. The rule behind the calls is not given here.

Chain of D(2) dopamine receptor (P61169 whole entry): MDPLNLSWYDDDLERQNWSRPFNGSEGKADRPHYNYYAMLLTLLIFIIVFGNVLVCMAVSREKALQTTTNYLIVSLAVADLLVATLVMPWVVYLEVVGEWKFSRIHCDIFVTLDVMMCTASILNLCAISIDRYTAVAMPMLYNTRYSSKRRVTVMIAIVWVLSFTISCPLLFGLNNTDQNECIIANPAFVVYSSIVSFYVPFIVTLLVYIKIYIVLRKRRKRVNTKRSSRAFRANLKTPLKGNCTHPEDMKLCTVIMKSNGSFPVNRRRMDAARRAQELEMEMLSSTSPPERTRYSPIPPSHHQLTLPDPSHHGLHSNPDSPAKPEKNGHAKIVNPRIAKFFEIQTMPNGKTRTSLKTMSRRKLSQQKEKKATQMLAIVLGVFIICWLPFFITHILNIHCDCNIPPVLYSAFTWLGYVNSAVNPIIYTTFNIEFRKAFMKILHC
Chain of Beta-1 adrenergic receptor (Homo sapiens) (P08588 whole entry, looked up): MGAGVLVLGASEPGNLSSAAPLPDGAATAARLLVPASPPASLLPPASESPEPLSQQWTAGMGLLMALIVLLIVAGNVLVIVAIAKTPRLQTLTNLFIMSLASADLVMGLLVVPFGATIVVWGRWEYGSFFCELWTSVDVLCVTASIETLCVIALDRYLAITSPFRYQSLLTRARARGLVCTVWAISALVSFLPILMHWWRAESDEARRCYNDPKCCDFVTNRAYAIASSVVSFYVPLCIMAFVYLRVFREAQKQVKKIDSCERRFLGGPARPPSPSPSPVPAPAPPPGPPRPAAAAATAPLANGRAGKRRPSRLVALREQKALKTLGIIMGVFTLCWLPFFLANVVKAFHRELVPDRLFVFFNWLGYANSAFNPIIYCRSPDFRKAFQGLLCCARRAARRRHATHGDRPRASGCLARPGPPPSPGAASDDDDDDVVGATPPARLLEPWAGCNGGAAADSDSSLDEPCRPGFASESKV
Chain of Beta-2 adrenergic receptor (Homo sapiens) (P07550 whole entry, looked up): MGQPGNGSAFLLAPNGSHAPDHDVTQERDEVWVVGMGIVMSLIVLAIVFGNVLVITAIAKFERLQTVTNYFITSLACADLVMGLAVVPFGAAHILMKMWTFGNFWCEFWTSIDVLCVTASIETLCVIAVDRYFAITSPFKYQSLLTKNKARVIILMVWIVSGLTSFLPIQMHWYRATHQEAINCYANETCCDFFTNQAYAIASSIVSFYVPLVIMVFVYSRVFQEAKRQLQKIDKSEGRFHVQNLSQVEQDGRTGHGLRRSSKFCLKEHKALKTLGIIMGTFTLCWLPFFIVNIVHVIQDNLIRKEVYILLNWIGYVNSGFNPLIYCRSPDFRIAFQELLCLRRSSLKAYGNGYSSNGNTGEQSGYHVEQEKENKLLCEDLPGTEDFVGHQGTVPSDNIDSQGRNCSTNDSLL
Chain of D(1A) dopamine receptor (P18901 whole entry): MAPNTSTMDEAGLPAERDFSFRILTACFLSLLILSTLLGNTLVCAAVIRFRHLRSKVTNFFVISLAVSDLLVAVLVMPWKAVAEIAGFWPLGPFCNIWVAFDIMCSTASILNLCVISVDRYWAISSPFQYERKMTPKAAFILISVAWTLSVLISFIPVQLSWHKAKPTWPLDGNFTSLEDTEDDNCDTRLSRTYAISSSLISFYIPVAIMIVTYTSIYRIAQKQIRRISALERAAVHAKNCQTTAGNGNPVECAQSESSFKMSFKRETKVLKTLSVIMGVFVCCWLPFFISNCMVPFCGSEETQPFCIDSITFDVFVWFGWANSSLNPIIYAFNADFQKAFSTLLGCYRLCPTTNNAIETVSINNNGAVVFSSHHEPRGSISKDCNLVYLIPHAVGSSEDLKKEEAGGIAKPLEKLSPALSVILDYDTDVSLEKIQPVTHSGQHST

Take `NCCc1ccc(O)c(O)c1` [DOPAMINE]: the “Decrease in blood pressure” value in assay [1] turned out to be 9.4. Also, in assay [2], the Cumulative urine volume came to 4. In assay [3], the “Change in blood flow” value is 1. This compound also registered a Blockade in assay [4] of 100%.
With `Oc1ccc(C[C@H]2CCCN2CCCCCCN2CCC[C@H]2Cc2ccc(O)c(O)c2)cc1O`, the values for the Blockade in [5] and in assay [4] were 20% and 100%, respectively. The “Change in blood flow” value in assay [3] came to 9.4; in assay [7] it was 80. Also, the “Log Ki” value in assay [6] and in assay [9] was “inactive” throughout. In [8], the “Log Ki” value is on record as -6.24. Besides, the Ki is 575 nM in [10] and 8.91 nM in [11].
As to `CCCN(CCCCCCN1CCC[C@@H]1Cc1ccc(O)c(O)c1)CCc1ccc(O)c(O)c1`, the “Decrease in blood pressure” value in assay [1] is 18.6. Also, the Blockade in assay [5] came out at 70%; in assay [4], 100%. Moreover, in assay [2], the Cumulative urine volume was 24. In addition, the “Change in blood flow” value in assay [3] is 6; in [7], 382. Also, the “Log Ki” value in assay [6] and in [9] was “inactive” throughout. In addition, the “Log Ki” value in assay [8] was -6.41. Besides, the Ki in assay [10] is 18.6 nM; in assay [11], 3.24 nM.
On to `Oc1ccc(C[C@@H]2CCCN2CCCCCCN2CCC[C@H]2Cc2ccc(O)c(O)c2)cc1O`, for which the Blockade in assay [5] was found to be 0%; in assay [4], 100%. Besides, the entries for the “Change in blood flow” value in assay [3] and in assay [7] were 1.2 and 0.3, respectively. In addition, the “Log Ki” value in [6] and in assay [9] was “inactive” in each case. Also, the “Log Ki” value in [8] is -6.41. For the same compound, the values for the Ki in [10] and in [11] were 617 nM and 14.8 nM, respectively.
Consider `CCCCN1CCCC1Cc1ccc(O)c(O)c1` (stereo not given), for which the Ki in assay [10] was 7.94 nM; in [11], 3.16 nM.
In the case of `Oc1ccc(C[C@H]2CCCN2CCCCCCN2CCC[C@@H]2Cc2ccc(O)c(O)c2)cc1O`, in [1], the “Decrease in blood pressure” value was 22.4. The Blockade in [5] came to 70%; in assay [4], 100%. For the same compound, the Cumulative urine volume in assay [2] is 17. Moreover, the entries for the “Change in blood flow” value in assay [3] and in assay [7] were 1.2 and 359, respectively. Moreover, the “Log Ki” value in assay [6] and in assay [9] was “inactive” each time. In addition, in [8], the “Log Ki” value was -7.25. Besides, the Ki in [10] is 6.46 nM; in [11], 6.17 nM.
As for `CCCN(CCC)CCc1ccc(O)c(O)c1`, the Blockade in assay [5] was determined as 80%. The “Change in blood flow” value in [7] is 1. Also, the “Log Ki” value in [8] was -5.7. Also, the Ki in assay [10] was 4680 nM; in assay [11] it was 22.4 nM.
With `Oc1ccc(C2CNCCc3c2cc(O)c(O)c3Cl)cc1` (stereo not given) [FENOLDOPAM], the Blockade in [5] turned out to be 20%; in [4], 100%. In addition, the “Change in blood flow” value in assay [3] amounted to 8; in [7], 0.2.

The term Ki denotes the equilibrium dissociation constant of an inhibitor or competing ligand from its target. Lower therefore signals tighter binding.

These data come from ChEMBL document CHEMBL1159170 (Bioorg Med Chem Lett, 1995).
